# From BindingDB's records for doi:10.1016/j.bmcl.2009.09.081 (Lexicon Pharmaceuticals, 2009)
# Test: Inhibition of deoxycytidine kinase-mediated arabinoside C-induced cytotoxicity
row,SMILES,EC50
1,"Cc1ccc(-c2cccc(S(=O)(=O)N[C@H]3CC[C@H](n4cc(F)c(N)nc4=O)C3)c2)cc1 [N-((1S,3S)-3-(4-amino-5-fluoro-2-oxopyrimidin-1(2H)-yl)cyclopentyl)-4'-methylbiphenyl-3-sulfonamide]",500 nM
2,"NC(=O)c1ccc(-c2cccc(S(=O)(=O)N[C@H]3CC[C@H](n4cc(F)c(N)nc4=O)C3)c2)cc1 [3'-(N-((1S,3S)-3-(4-amino-5-fluoro-2-oxopyrimidin-1(2H)-yl)cyclopentyl)sulfamoyl)biphenyl-4-carboxamide]",5900 nM
3,"Cc1cc(Cl)ccc1-c1cccc(S(=O)(=O)N[C@H]2CC[C@H](n3cc(F)c(N)nc3=O)C2)c1 [N-((1S,3S)-3-(4-amino-5-fluoro-2-oxopyrimidin-1(2H)-yl)cyclopentyl)-4'-chloro-2'-methylbiphenyl-3-sulfonamide]",290 nM
4,"COc1ccc(-c2cccc(S(=O)(=O)N[C@H]3CC[C@H](n4cc(F)c(N)nc4=O)C3)c2)cc1 [N-((1S,3S)-3-(4-amino-5-fluoro-2-oxopyrimidin-1(2H)-yl)cyclopentyl)-4'-methoxybiphenyl-3-sulfonamide]",300 nM
5,"Nc1nc(=O)n([C@H]2CC[C@H](NS(=O)(=O)c3cccc(Br)c3)C2)cc1F [N-((1S,3S)-3-(4-amino-5-fluoro-2-oxopyrimidin-1(2H)-yl)cyclopentyl)-3-bromobenzenesulfonamide]",2800 nM
6,"Nc1nc(=O)n([C@H]2CC[C@H](NS(=O)(=O)c3ccc(-c4ccccc4)cc3)C2)cc1F [N-((1S,3S)-3-(4-amino-5-fluoro-2-oxopyrimidin-1(2H)-yl)cyclopentyl)biphenyl-4-sulfonamide]",5500 nM
7,"Nc1nc(=O)n([C@H]2CC[C@H](NS(=O)(=O)c3ccc([N+](=O)[O-])cc3)C2)cc1F [N-((1S,3S)-3-(4-amino-5-fluoro-2-oxopyrimidin-1(2H)-yl)cyclopentyl)-4-nitrobenzenesulfonamide]",16000 nM
8,"Nc1nc(=O)n([C@H]2CC[C@H](NS(=O)(=O)c3cccc(-c4ccccc4)c3)C2)cc1F [N-((1S,3S)-3-(4-amino-5-fluoro-2-oxopyrimidin-1(2H)-yl)cyclopentyl)biphenyl-3-sulfonamide]",600 nM
9,"Nc1nc(=O)n([C@H]2CC[C@H](NS(=O)(=O)c3ccc(Br)cc3)C2)cc1F [N-((1S,3S)-3-(4-amino-5-fluoro-2-oxopyrimidin-1(2H)-yl)cyclopentyl)-4-bromobenzenesulfonamide]",11000 nM
10,"Nc1nc(=O)n([C@H]2CC[C@H](NS(=O)(=O)c3cccc(-c4cccc(Cl)c4)c3)C2)cc1F [N-((1S,3S)-3-(4-amino-5-fluoro-2-oxopyrimidin-1(2H)-yl)cyclopentyl)-3'-chlorobiphenyl-3-sulfonamide]",360 nM
11,"Cc1cc(Cl)ccc1-c1cccc(C(=O)N[C@H]2CC[C@H](n3cc(F)c(N)nc3=O)C2)c1 [N-((1S,3S)-3-(4-amino-5-fluoro-2-oxopyrimidin-1(2H)-yl)cyclopentyl)-4'-chloro-2'-methylbiphenyl-3-carboxamide]",170 nM
12,"Nc1nc(=O)n([C@H]2CC[C@H](NS(=O)(=O)c3cccc(-c4ccc(Cl)cc4Cl)c3)C2)cc1F [N-((1S,3S)-3-(4-amino-5-fluoro-2-oxopyrimidin-1(2H)-yl)cyclopentyl)-2',4'-dichlorobiphenyl-3-sulfonamide]",530 nM
13,"Nc1nc(=O)n([C@H]2CC[C@H](NS(=O)(=O)c3cccc(-c4ccc(Cl)cc4)c3)C2)cc1F [N-((1S,3S)-3-(4-amino-5-fluoro-2-oxopyrimidin-1(2H)-yl)cyclopentyl)-4'-chlorobiphenyl-3-sulfonamide]",240 nM
14,"Nc1nc(=O)n([C@H]2CC[C@H](NS(=O)(=O)c3cccc(-c4ccccc4Cl)c3)C2)cc1F [N-((1S,3S)-3-(4-amino-5-fluoro-2-oxopyrimidin-1(2H)-yl)cyclopentyl)-2'-chlorobiphenyl-3-sulfonamide]",430 nM
15,"N#Cc1ccc(-c2cccc(S(=O)(=O)N[C@H]3CC[C@H](n4cc(F)c(N)nc4=O)C3)c2)cc1 [N-((1S,3S)-3-(4-amino-5-fluoro-2-oxopyrimidin-1(2H)-yl)cyclopentyl)-4'-cyanobiphenyl-3-sulfonamide]",390 nM
16,"Nc1nc(=O)n([C@H]2CC[C@H](NC(=O)c3cccc(-c4ccc(Cl)cc4)c3)C2)cc1F [N-((1S,3S)-3-(4-amino-5-fluoro-2-oxopyrimidin-1(2H)-yl)cyclopentyl)-4'-chlorobiphenyl-3-carboxamide]",270 nM
17,"Nc1nc(=O)n([C@H]2CC[C@H](NC(=O)c3cccc(-c4ccccc4)c3)C2)cc1F [N-((1S,3S)-3-(4-amino-5-fluoro-2-oxopyrimidin-1(2H)-yl)cyclopentyl)biphenyl-3-carboxamide]",910 nM
18,"Nc1nc(=O)n([C@H]2CC[C@H](NS(=O)(=O)c3ccccc3)C2)cc1F [N-((1S,3S)-3-(4-amino-5-fluoro-2-oxopyrimidin-1(2H)-yl)cyclopentyl)benzenesulfonamide]",17000 nM
19,"Nc1nc(=O)n([C@H]2CC[C@H](NC(=O)c3cccc(-c4cccc(Cl)c4)c3)C2)cc1F [N-((1S,3S)-3-(4-amino-5-fluoro-2-oxopyrimidin-1(2H)-yl)cyclopentyl)-3'-chlorobiphenyl-3-carboxamide]",180 nM
20,"CS(=O)(=O)c1ccc(-c2cccc(S(=O)(=O)N[C@H]3CC[C@H](n4cc(F)c(N)nc4=O)C3)c2)cc1 [N-((1S,3S)-3-(4-amino-5-fluoro-2-oxopyrimidin-1(2H)-yl)cyclopentyl)-4'-(methylsulfonyl)biphenyl-3-sulfonamide]",1800 nM
21,"COc1ccc(-c2cccc(C(=O)N[C@H]3CC[C@H](n4cc(F)c(N)nc4=O)C3)c2)cc1 [N-((1S,3S)-3-(4-amino-5-fluoro-2-oxopyrimidin-1(2H)-yl)cyclopentyl)-4'-methoxybiphenyl-3-carboxamide]",100 nM
